“Also recorded” adds a separate entry of the source.
Assay: Phase I dose escalation study: safety, tolerability, DLT and MTD
Format: in vivo

SMILES: Cc1cccc2c1NC(=O)[C@@H](NC(=O)[C@H](CCC(F)(F)F)[C@H](CCC(F)(F)F)C(N)=O)N=C2c1cccc(F)c1 [BMS-986115]
- Vision blurred (drug related AE, all grades) (Arm B BIW 8 mg (N = 8)): 1 (13) n (%)
- Vomiting (drug related AE, Grade 3 and 4) (Arm B BIW 8 mg (N = 8)): 0 n (%)
- Vomiting (drug related AE, all grades) (Arm B BIW 8 mg (N = 8)): 4 (50) n (%)
- Weight decreased (drug related AE, all grades) (Arm B BIW 8 mg (N = 8)): 0 n (%)
- No. of patients with DLTs (Arm B BIW 8 mg, 6 DLT evaluable patients): 2
- Abdominal distension (drug related AE, all grades) (Arm B BIW Total (N = 12)): 1 (8) n (%)
- Abdominal pain (drug related AE, Grade 3 and 4) (Arm B BIW Total (N = 12)): 0 n (%)
- Abdominal pain (drug related AE, all grades) (Arm B BIW Total (N = 12)): 1 (8) n (%)
- Blood creatinine increased (drug related AE, all grades) (Arm B BIW Total (N = 12)): 1 (8) n (%)
- Colitis (drug related AE, Grade 3 and 4) (Arm B BIW Total (N = 12)): 0 n (%)
- Cough (drug related AE, Grade 3 and 4) (Arm B BIW Total (N = 12)): 0 n (%)
- Cough (drug related AE, all grades) (Arm B BIW Total (N = 12)): 1 (8) n (%)
- Decreased Appetite (drug related AE, Grade 3 and 4) (Arm B BIW Total (N = 12)): 1 (8) n (%)
- Decreased Appetite (drug related AE, all grades) (Arm B BIW Total (N = 12)): 5 (42) n (%)
- Dehydration (drug related AE, Grade 3 and 4) (Arm B BIW Total (N = 12)): 1 (8) n (%)
- Dehydration (drug related AE, all grades) (Arm B BIW Total (N = 12)): 2 (17) n (%)
- Dermatitis acneiform (drug related AE, all grades) (Arm B BIW Total (N = 12)): 0 n (%)
- Diarrhoea (drug related AE, Grade 3 and 4) (Arm B BIW Total (N = 12)): 3 (25) n (%)
- Diarrhoea (drug related AE, all grades) (Arm B BIW Total (N = 12)): 8 (67) n (%)
- Dry mouth (drug related AE, all grades) (Arm B BIW Total (N = 12)): 1 (8) n (%)
- Dry skin (drug related AE, all grades) (Arm B BIW Total (N = 12)): 2 (17) n (%)
- Dysgeusia (drug related AE, all grades) (Arm B BIW Total (N = 12)): 2 (17) n (%)
- Dyspepsia (drug related AE, all grades) (Arm B BIW Total (N = 12)): 1 (8) n (%)
- Dysphonia (drug related AE, all grades) (Arm B BIW Total (N = 12)): 1 (8) n (%)
- Fatigue (drug related AE, Grade 3 and 4) (Arm B BIW Total (N = 12)): 0 n (%)
- Fatigue (drug related AE, all grades) (Arm B BIW Total (N = 12)): 6 (50) n (%)
- Flatulence (drug related AE, all grades) (Arm B BIW Total (N = 12)): 3 (25) n (%)
- Hypocalcaemia (drug related AE, Grade 3 and 4) (Arm B BIW Total (N = 12)): 1 (8) n (%)
- Hypocalcaemia (drug related AE, all grades) (Arm B BIW Total (N = 12)): 1 (8) n (%)
- Hypokalaemia (drug related AE, Grade 3 and 4) (Arm B BIW Total (N = 12)): 0 n (%)
- Hypokalaemia (drug related AE, all grades) (Arm B BIW Total (N = 12)): 3 (25) n (%)
- Hyponatraemia (drug related AE, Grade 3 and 4) (Arm B BIW Total (N = 12)): 1 (8) n (%)
- Hyponatraemia (drug related AE, all grades) (Arm B BIW Total (N = 12)): 1 (8) n (%)
- Hypophosphataemia (drug related AE, Grade 3 and 4) (Arm B BIW Total (N = 12)): 6 (50) n (%)
- Hypophosphataemia (drug related AE, all grades) (Arm B BIW Total (N = 12)): 7 (58) n (%)
- Ileus (drug related AE, Grade 3 and 4) (Arm B BIW Total (N = 12)): 0 n (%)
- Increased upper airway secretion (drug related AE, all grades) (Arm B BIW Total (N = 12)): 3 (25) n (%)
- Laryngeal pain (drug related AE, all grades) (Arm B BIW Total (N = 12)): 0 n (%)
- Leucocytosis (drug related AE, Grade 3 and 4) (Arm B BIW Total (N = 12)): 1 (8) n (%)
- Mouth ulceration (drug related AE, all grades) (Arm B BIW Total (N = 12)): 1 (8) n (%)
- Nausea (drug related AE, Grade 3 and 4) (Arm B BIW Total (N = 12)): 1 (8) n (%)
- Nausea (drug related AE, all grades) (Arm B BIW Total (N = 12)): 7 (58) n (%)
- Pruritus (drug related AE, Grade 3 and 4) (Arm B BIW Total (N = 12)): 0 n (%)
- Pruritus (drug related AE, all grades) (Arm B BIW Total (N = 12)): 3 (25) n (%)
- Pulmonary embolism (drug related AE, Grade 3 and 4) (Arm B BIW Total (N = 12)): 0 n (%)
- Rash (drug related AE, all grades) (Arm B BIW Total (N = 12)): 3 (25) n (%)
- Rash maculopapular (drug related AE, all grades) (Arm B BIW Total (N = 12)): 3 (25) n (%)
- Sinusitis (drug related AE, all grades) (Arm B BIW Total (N = 12)): 0 n (%)
- Urticaria (drug related AE, Grade 3 and 4) (Arm B BIW Total (N = 12)): 0 n (%)
- Vision blurred (drug related AE, all grades) (Arm B BIW Total (N = 12)): 1 (8) n (%)
- Vomiting (drug related AE, Grade 3 and 4) (Arm B BIW Total (N = 12)): 0 n (%)
- Vomiting (drug related AE, all grades) (Arm B BIW Total (N = 12)): 4 (33) n (%)
- Weight decreased (drug related AE, all grades) (Arm B BIW Total (N = 12)): 0 n (%)
- Patients with dose limiting toxicities (Arm B BIW, all dose levels): 2 patients
- Treatment-related SAEs, description (Arm B BIW, one line per subject): Gr 3 diarrhoea; also recorded: Gr 3 nausea, dehydration and decreased appetite
- Maximum Tolerated Dose (MTD) (Arm B, twice weekly (BIW) oral dosing): not established
- Treatment-related deaths (all 36 patients): no treatment-related deaths
- Subjects who discontinued due to treatment-related AEs (all 36 subjects): 5 subjects
- Subjects who discontinued treatment due to AEs (all 36 subjects): 25%
- Subjects with treatment-related SAEs (all 36 subjects): 22%
- Subjects with SAEs (all 36 subjects, overall): 50%
- Hypokalaemia, treatment-related Gr 3 or 4 AE (all patients): 11%
- Hyponatraemia, treatment-related Gr 3 or 4 AE (all patients): 6%
- Nausea, treatment-related Gr 3 or 4 AE (all patients): 11%
- Decreased appetite, treatment related AE (all patients, all grades): 36%
- Diarrhoea, treatment related AE (all patients, all grades): 72%
- Hypokalaemia, treatment related AE (all patients, all grades): 28%
- Hypophosphataemia, treatment related AE (all patients, all grades): 64%
- Nausea, treatment related AE (all patients, all grades): 61%
- Rash, treatment related AE (all patients, all grades): 31%
- Diarrhoea, AE regardless of causality (all treated subjects): 72%

From paper PMC7523345 (Investigational new drugs, 2018)
